Source: article PMC3071374, “High Throughput Screens Yield Small Molecule Inhibitors of Leishmania CRK3:CYC6 Cyclin-Dependent Kinase” (PLoS Neglected Tropical Diseases, 2011)
Where two headings read alike, the source gives them in different places.

What was measured:
[1] = tested on: WT amastigote L. major; assay: Intra-macrophage L. major amastigote assay; type: cell-based; conditions: synthesised azapurine derivatives, infected peritoneal macrophages; for IC50: read-out: IC50 against WT amastigote L. major
Experimental: Macrophages were harvested from the peritoneum of Balb/C mice, centrifuged at 1000× g for 10 minutes at 4°C and resuspended in fresh RPMI 1640 media supplemented with 10% HIFCS and 1% (v/v) Gentamicin, as described previously. Macrophages were diluted to a cell density of 5×10^5 cells ml^-1 in RPMI supplemented with 10% HIFCS and 100 μl were added to each well of a 16-well Lab-tek cavity slide (50,000 mφ/well) and incubated at 37°C, 5% CO2 for subsequent experiments. […] Inhibitors were set up in a five-fold dilution series in RPMI 1640 medium supplemented with 10% […] of inhibitor were added to the wells in serial dilution and slides incubated for 72 hours at 37°C with 5% CO2. After 72 hours the medium was removed and replaced with fresh medium containing the same concentrations of inhibitors and incubated for a further 48 hours at 37°C with 5% CO2. At the end of the incubation period, the medium was removed, the slides were washed twice with fresh RPMI 1640 medium supplemented with 10% HIFCS then fixed with 100% methanol and stained with 10% Giemsa's stain for 10 minutes. The percentage of infected macrophages and number of amastigotes per macrophage were determined by light microscopy under oil immersion.

[2] = molecular target: Leishmania CRK3:CYC6 (Leishmania major, UniProt O96526); type: biochemical
Experimental: (§1) Leishmania CRK3:CYC6 protein kinase assays were performed in 96-well microtiter plates in a final volume of 25 µl. Each assay point contained 7.5 ng of co-expressed histidine-tagged CRK3:CYC6 protein kinase complex (hereafter referred to as CRK3:CYC6) diluted in enzyme dilution buffer (EDB) (20 mM Tris-HCl pH 7.2, 0.5 mg ml^−1 BSA, 2.5% glycerol and 0.006% Brij-35). Assays were performed using the assay development buffer (ADB) (20 mM MOPS, pH 7.0, 25 mM β-glycerophosphate, 5 mM EGTA, 1 mM NaVO3, 1 mM DTT and 15 mM MgCl2) supplemented with 100 µM ATP, 0.5 µCi of γ-^32P ATP per reaction and histone H1 as a substrate used at 0.4 mg ml^−1. Two and three-fold titrations were set up to determine the concentration of enzyme to be used per assay point (7.5 ng) and to determine the concentrations of selected inhibitors required for 50% inhibition of Leishmania CRK3:CYC6 protein kinase activity (IC50 values), respectively. For IC50 determinations, assay mixes contained DMSO to a final concentration of 2%. Mammalian protein kinase assays were carried out according to the assay protocols developed at Cyclacel. Assays were carried out for 30 minutes at 30°C before stopping the reaction by the addition of an equal volume (25 µl) of 75 mM orthophosphoric acid. Samples were spotted onto a p81 cellulose filterplate (Nunc) and a vacuum applied. Wells were washed 3×200 µl with 75 mM phosphoric acid and the bottom of the plate sealed. 50 µl of Microscint 40 (Perkin Elmer) was added per well before incorporation of radioactivity was determined on a Topcount microplate scintillation counter.

[3] = tested on: WT promastigote L. major; assay: L. major promastigote growth inhibition assay (resazurin); type: cell-based; conditions: for inhibition of parasite growth in culture (in words): promastigotes and intra-macrophage amastigotes in culture; for IC50: 5 days at 25°C, read-out: IC50 against WT promastigote L. major
Experimental: L. major wild type promastigotes (Friedlin strain: WHO designation MHOM/JL/81/Friedlin) were grown at 25°C in HOMEM medium (Invitrogen cat no. 041-94699111) supplemented with 10% (v/v) heat inactivated foetal calf serum (HIFCS) and 1% (v/v) penicillin/streptomycin antibiotics.
CRK3 inhibitors were diluted into HOMEM medium supplemented with 10% HIFCS at twice the final screening concentration. Five-fold or ten-fold serial dilutions were carried out into HOMEM medium supplemented with 10% HIFCS. 100 µl of each drug concentration were added to a 96 well plate in duplicate. 100 µl of five-fold or ten-fold serial dilutions of 1 mM Pentamidine (Sigma) and an equivalent volume of 100% DMSO were included as positive and negative controls, in duplicate, respectively. L. major promastigote cells were diluted to a cell density of 2×10^6 cells ml^−1 in HOMEM media supplemented with 10% HIFCS and 100 µl added to all wells in 96 well plates. Plates were sealed with parafilm and incubated for 5 days at 25°C. After 5 days, 20 µl of filter sterile resazurin solution (12.5 mg resazurin salt in 100 ml PBS) (Sigma) was added to each of the wells and the plate incubated for a further 24 hours at 25°C. Fluorescence was measured using an Envision plate reader (Perkin Elmer) at 540 nm excitation wavelength and 590 nm emission wavelength.

[4] = molecular target: human CDK2:CycA (Homo sapiens, UniProt P24941); assay: Mammalian protein kinase assay / counter screen, CDK2:CYCA; type: biochemical; conditions: BioFocus SFK48 HTS hits, re-screen
Experimental: as §1

[5] = synthesised azapurine derivatives
[6] = BioFocus SFK48 HTS hits, rescreen

Sequence of Leishmania CRK3:CYC6 (Q4Q4U0 entry or part of it): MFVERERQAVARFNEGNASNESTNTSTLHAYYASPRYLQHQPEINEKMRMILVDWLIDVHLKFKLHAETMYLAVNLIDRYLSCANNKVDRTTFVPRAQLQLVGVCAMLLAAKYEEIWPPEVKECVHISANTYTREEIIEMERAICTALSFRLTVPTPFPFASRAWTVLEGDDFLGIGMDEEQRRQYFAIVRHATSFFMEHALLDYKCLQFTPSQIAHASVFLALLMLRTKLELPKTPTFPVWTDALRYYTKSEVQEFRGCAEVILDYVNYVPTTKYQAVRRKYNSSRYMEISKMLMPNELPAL
Sequence of Leishmania CRK3:CYC6 (O96526 entry or part of it): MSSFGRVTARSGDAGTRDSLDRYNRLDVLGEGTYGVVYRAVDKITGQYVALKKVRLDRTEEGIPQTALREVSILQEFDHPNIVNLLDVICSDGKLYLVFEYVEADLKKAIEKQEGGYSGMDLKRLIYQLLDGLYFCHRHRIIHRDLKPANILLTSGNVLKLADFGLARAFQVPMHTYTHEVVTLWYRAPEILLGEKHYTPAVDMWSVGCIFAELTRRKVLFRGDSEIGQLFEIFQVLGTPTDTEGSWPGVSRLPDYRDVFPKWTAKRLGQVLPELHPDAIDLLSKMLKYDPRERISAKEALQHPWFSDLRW

| IC50 [1] | IC50 [2, 5] | IC50 [4] | IC50 [2, 6] | SMILES | activity towards promastigote L. major (in words) [3] | IC50 [3, 5] | IC50 ([3]; BioFocus SFK48 HTS hits) | other results |
| --- | --- | --- | --- | --- | --- | --- | --- | --- |
| 5 to 15 µM | 39.1 µM |  |  | COc1ccc(Cn2nnc3c(NCc4ccccn4)nc(CC4CCCCC4)nc32)cc1 [Compound 17] | showed a range of activity | 7.4 µM |  | inhibition of parasite growth in culture (in words) [3]: inhibited parasite growth in culture |
|  |  |  |  | COc1ccc(Cn2nnc3c(N4CCOCC4)nc(CC4CCCCC4)nc32)cc1 [Compound 20] |  |  |  | inhibition of CRK3/CYC6 in vitro (in words) [2]: did not inhibit |
|  | > 50 µM |  |  | COc1ccc(-n2nnc3c(O)nc(Cc4ccc(Br)cc4)nc32)cc1 [Compound 26] |  |  |  |  |
| 15 to 30 µM | 30.3 µM |  |  | COc1ccc(-n2nnc3c(N4CCOCC4)nc(CC4CCCCC4)nc32)cc1 [Compound 27] | showed a range of activity | 28.7 µM |  | inhibition of parasite growth in culture (in words) [3]: inhibited parasite growth in culture |
| 5 to 15 µM | > 50 µM |  |  | COc1ccc(-n2nnc3c(NCCN4CCOCC4)nc(CC4CCCCC4)nc32)cc1 [Compound 28] | showed a range of activity | 8.3 µM |  | inhibition of CRK3/CYC6 in vitro (in words) [2]: did not inhibit; inhibition of parasite growth in culture (in words) [3]: inhibited parasite growth in culture |
|  | > 100 µM |  |  | COc1ccc(-n2nnc3c(NCCN4CCOCC4)nc(Cc4ccccc4)nc32)cc1 [Compound 30] | showed a range of activity | 3.8 µM |  | activity against amastigotes (in words) [1]: Activity observed at 10 μM; inhibition of parasite growth in culture (in words) [3]: inhibited parasite growth in culture |
|  | > 20 µM |  |  | COc1ccc(-n2nnc3c(N4CCCC(CO)C4)nc(Cc4ccccc4)nc32)cc1 (stereo not drawn) [Compound 31] | showed a range of activity | 40 µM |  | activity against amastigotes (in words) [1]: Activity observed at 25 μM |
| > 25 µM | > 100 µM |  |  | COc1ccc(-n2nnc3c(NCC(C)O)nc(Cc4ccccc4)nc32)cc1 (stereo not drawn) [Compound 32] |  | > 50 µM |  |  |
| > 50 µM | > 50 µM |  |  | ONc1nc(CC2CCCCC2)nc2c1nnn2Cc1ccc(F)cc1 [Compound 35] |  | > 50 µM |  |  |
|  |  | > 20 µM | 3.5 µM | NC(c1ccccc1)c1csc(NC(=O)Nc2ccccc2)n1 (stereo not drawn) [Compound 36] |  |  | 26.8 µM |  |
|  |  | > 20 µM | 4.8 µM | NC(c1ccccc1)c1csc(NC(=O)Nc2ccccc2Cl)n1 (stereo not drawn) [Compound 37] |  |  | 27.5 µM |  |
|  |  | > 20 µM | 5 µM | COc1ccc(CC(N)c2csc(NC(=O)Nc3ccccc3Oc3ccccc3)n2)cc1 (stereo not drawn) [Compound 38] |  |  | 3.3 µM |  |
|  |  | > 20 µM | 7.5 µM | COc1ccc(C(N)c2csc(NC(=O)Nc3ccc(C(C)C)cc3)n2)cc1 (stereo not drawn) [Compound 39] |  |  | 3.8 µM |  |
|  |  | > 20 µM | 7.8 µM | CC(C)c1ccccc1NC(=O)Nc1nc(C2CCC(=O)N2)cs1 (stereo not drawn) [Compound 40] |  |  | > 50 µM |  |
|  |  | > 20 µM | 9 µM | Cc1ccccc1NC(=O)Nc1nc(C(N)c2ccccc2Cl)cs1 (stereo not drawn) [Compound 41] |  |  | 26.1 µM |  |
|  |  | > 20 µM | 10 µM | NC(c1ccccc1)c1csc(NC(=O)Nc2ccc(OC(F)(F)F)cc2)n1 (stereo not drawn) [Compound 42] |  |  | 6.9 µM |  |
